# Reference: patent EP2389922A1, “Cyclohexyl carbamate compounds as anti-ageing actives” (Symrise AG, priority 2010, dated 2011)
# How the values were obtained:
# SIRT1 = SIRT1 assay: stimulation of SIRT1 expression in NHDF cells (immunofluorescence); format: cell-based, human; conditions: concentration 30 µM; NHDF cells treated 48 h; mean values of at least 2 independent tests
# Procedure: NHDF cells (normal human dermal fibroblasts) were seeded in 96-well plates. After 24 h cultivation at 37 °C and 5% CO2 in DMEM (Dulbecco's Modified Eagle Medium), cells were treated with test substances for another 48 h. After washing the cells with PBS (phosphate buffered saline), the cells were fixed with paraformaldehyde and permeabilized. Then they were washed again and blocked with BSA (bovine serum albumen), followed by incubation with […]. After extensive washing, the fluorescence is measured in a microplate reader and fluorescence images were recorded on a fluorescence microscope with an attached […]. The stimulation of SIRT1 expression was calculated by: StimulationofSIRT1expression[%] = ((RFUtestesubstance−RFUbackground)/(RFUcontrol−RFUbackground)×100)−100 [formula] RFU test substance = relative fluorescent units of the wells with test substance, stained completely RFU control = relative fluorescent units of the wells without test substance, stained completely RFU background = relative fluorescent units of the wells without test substance, stained only with secondary antibody. Table Example 2: Stimulation of SIRT1 expression by the individual substances (mean values of at least 2 independent tests)
# isolated 20S proteasome = isolated 20S proteasome (Homo sapiens, UniProt P28074); test: Measurement of proteasome activity using isolated proteasome (chymotrypsin-like activity, MCA liberation); format: biochemical; conditions: mean values of 3 independent tests
# Source text: The method used herein to investigate the proteasome stimulating activity of a substance is based on the measurement of the 20S proteasome core activity. To detect this activity, the isolated 20S proteasome reacts with an oligopeptide, which is bound to a fluorochrome. With its chymotrypsin-like proteolytic activity, the proteasome degrades the oligopeptide and liberates the fluorochrome. For this assay 4-methyl-coumaryl-amide (MCA) was used as fluorochrome. Liberation of MCA correlates linearly with the proteasome activity. MCA wass detected using an excitation of 360 nm and an emission of 460 nm.
# For interpretation, the measured proteasome activities / intensities of fluorescence were compared with pure MCA standards at distinct concentrations.
# Two different controls were used for each assay. One "ordinary" control (C) which consisted of isolated proteasome alone, and a DMSO-control (DC). DC was necessary because all substances were diluted in DMSO. Proteasome activity was calculated relative to DMSO control (0 mM). Table Example 3.1: Measurement of proteasome activity of BIO1272 using isolated proteasome (mean values of 3 independent tests)
# proteasome = target: T1, proteasome (Homo sapiens, UniProt P28074); test: Measurement of proteasome activity using cell lysates (HaCaT cells, MCA liberation); format: biochemical; conditions: HaCaT cell lysate, relative to DMSO control (0 mM = 100 %), mean values of 3 independent tests
# T1 construct: endogenous in cells; host or cells: HaCaT human keratinocytes (cell lysate)
# Procedure: To determine proteasome activity in cell lysate, human keratinocyte cell lines (HaCaT cells) were seeded out in Petri-dishes (area: 22.1 cm^2) and harvested when they reached confluence. Isolation of the pure cell lysate included cell washing, incubation and homogenization in lysis buffer (250mM sucrose, 25mM HEPES (4-(2-hydroxyethyl)-1-piperazineethanesulfonic acid), 10mM MgCl2*6H2O, 1.3mM EDTA) and final cell lysis with liquid nitrogen. Determination of proteasome activity is based on the liberation of MCA and the corresponding fluorescence like described above in example 3.1. Proteasome activity was calculated relative to DMSO control (0 mM). Table Example 3.2: Measurement of proteasome activity of BIO1272 using cellular extracts (mean values of 3 independent tests)
# yeast = conditions: cited from earlier work
# fish = conditions: cited from earlier work
SMILES,Stimulation of SIRT1 expression (SIRT1) [%],also measured
"CCCCNC(=O)O[C@@H]1C[C@H](C)CC[C@H]1C(C)C [BIO1267, n-Butyl-carbamic acid (1R,2S,5R)-2-isopropyl-5-methyl-cyclohexyl ester]",29,
"CCCCCCNC(=O)O[C@@H]1C[C@H](C)CC[C@H]1C(C)C [BIO1271, Hexyl-carbamic acid (1R,2S,5R)-2-isopropyl-5-methyl-cyclohexyl ester]",66,
"CC(C)NC(=O)O[C@@H]1C[C@H](C)CC[C@H]1C(C)C [BIO1272, Isopropyl-carbamic acid (1R,2S,5R)-2-isopropyl-5-methyl-cyclohexyl ester]",,"Relative proteasome activity [%] (isolated 20S proteasome; 5mM BIO1272, relative to DMSO control (0 mM = 100 %)): 125%; Relative proteasome activity [%] (isolated 20S proteasome; 10mM BIO1272, relative to DMSO control (0 mM = 100 %)): 210%; Relative proteasome activity [%] (isolated 20S proteasome; 20mM BIO1272, relative to DMSO control (0 mM = 100 %)): 250%; Relative proteasome activity [%] (proteasome; 5mM BIO1272): 105%; Relative proteasome activity [%] (proteasome; 10mM BIO1272): 120%; Relative proteasome activity [%] (proteasome; 20mM BIO1272): 140%"
"CC(C)[C@@H]1CC[C@@H](C)C[C@H]1OC(=O)Nc1ccccc1 [BIO1580, Phenyl-carbamic acid (1R,2S,5R)-2-isopropyl-5-methyl-cyclohexyl ester]",117,
"CCCCNC(=O)OC1C(C)CCC(C)C1C (stereo not shown) [BIO1617, n-Butyl-carbamic acid 2,3,6-trimethyl-cyclohexyl ester]",24,
"CCc1ccc(NC(=O)OC2CC(C)CC(C)C2)cc1 (stereo not shown) [BIO1823, (4-Ethyl-phenyl)-carbamic acid 3,5-dimethyl-cyclohexyl ester]",66,
"CCCCNC(=O)OC1CCCCC1C(C)C (stereo not shown) [BIO1841, n-Butyl-carbamic acid 2-isopropyl-cyclohexyl ester]",14,
"CCC(C)NC(=O)OC1CCCC(C)C1C (stereo not shown) [BIO1845, sec-Butyl-carbamic acid 2,3-dimethyl-cyclohexyl ester]",52,
"CCCCNC(=O)O[C@H]1C[C@@H](C)CC[C@@H]1C(C)C [BIO1860, Butyl-carbamic acid (1S,2R,5S)-2-isopropyl-5-methyl-cyclohexyl ester]",47,
Oc1ccc(C=Cc2cc(O)cc(O)c2)cc1 [Resveratrol],,extending lifespan (yeast): 70%; extending lifespan (fish): 60%
